Where “and” joins values, the source holds several entries; their conditions need not be identical. Equal entries are not always repeated.
Experiments:
[1] = biological target: Neuronal acetylcholine receptor subunit alpha-2 (Rattus norvegicus, UniProt P12389)
[2] = biological target: Neuronal acetylcholine receptor subunit alpha-3 (Rattus norvegicus, UniProt P04757)
[3] = biological target: Neuronal acetylcholine receptor subunit alpha-4 (Rattus norvegicus, UniProt P09483)
[4] = biological target: Nicotinic acetylcholine receptor (Rattus norvegicus)

Neuronal acetylcholine receptor subunit alpha-2, sequence (P12389 whole entry): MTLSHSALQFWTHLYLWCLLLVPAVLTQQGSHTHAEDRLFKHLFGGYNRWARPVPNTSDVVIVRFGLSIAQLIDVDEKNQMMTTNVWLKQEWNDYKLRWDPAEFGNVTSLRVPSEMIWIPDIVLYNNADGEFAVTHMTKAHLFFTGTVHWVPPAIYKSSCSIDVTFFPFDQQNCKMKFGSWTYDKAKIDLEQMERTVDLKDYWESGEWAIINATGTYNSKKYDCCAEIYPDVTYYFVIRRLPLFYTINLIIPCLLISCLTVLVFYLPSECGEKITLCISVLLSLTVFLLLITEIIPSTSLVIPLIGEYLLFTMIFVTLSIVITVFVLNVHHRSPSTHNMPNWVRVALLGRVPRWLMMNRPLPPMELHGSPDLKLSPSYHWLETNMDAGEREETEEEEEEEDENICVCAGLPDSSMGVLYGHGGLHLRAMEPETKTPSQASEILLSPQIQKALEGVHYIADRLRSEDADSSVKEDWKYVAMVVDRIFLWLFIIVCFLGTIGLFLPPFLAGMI
Neuronal acetylcholine receptor subunit alpha-3, sequence (P04757 whole entry): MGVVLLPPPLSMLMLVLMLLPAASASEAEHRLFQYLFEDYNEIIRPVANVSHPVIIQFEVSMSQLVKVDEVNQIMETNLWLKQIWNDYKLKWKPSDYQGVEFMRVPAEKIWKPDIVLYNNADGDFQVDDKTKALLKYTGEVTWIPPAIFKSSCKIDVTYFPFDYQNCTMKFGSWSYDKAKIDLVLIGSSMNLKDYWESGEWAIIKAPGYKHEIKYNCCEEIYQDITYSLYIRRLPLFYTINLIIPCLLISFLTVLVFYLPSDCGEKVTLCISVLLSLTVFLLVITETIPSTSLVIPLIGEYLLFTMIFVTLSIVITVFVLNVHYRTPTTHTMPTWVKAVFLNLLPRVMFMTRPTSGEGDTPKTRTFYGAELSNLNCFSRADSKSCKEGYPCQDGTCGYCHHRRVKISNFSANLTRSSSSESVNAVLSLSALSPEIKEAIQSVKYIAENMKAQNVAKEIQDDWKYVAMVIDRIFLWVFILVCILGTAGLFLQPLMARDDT
Neuronal acetylcholine receptor subunit alpha-4, sequence (P09483 whole entry): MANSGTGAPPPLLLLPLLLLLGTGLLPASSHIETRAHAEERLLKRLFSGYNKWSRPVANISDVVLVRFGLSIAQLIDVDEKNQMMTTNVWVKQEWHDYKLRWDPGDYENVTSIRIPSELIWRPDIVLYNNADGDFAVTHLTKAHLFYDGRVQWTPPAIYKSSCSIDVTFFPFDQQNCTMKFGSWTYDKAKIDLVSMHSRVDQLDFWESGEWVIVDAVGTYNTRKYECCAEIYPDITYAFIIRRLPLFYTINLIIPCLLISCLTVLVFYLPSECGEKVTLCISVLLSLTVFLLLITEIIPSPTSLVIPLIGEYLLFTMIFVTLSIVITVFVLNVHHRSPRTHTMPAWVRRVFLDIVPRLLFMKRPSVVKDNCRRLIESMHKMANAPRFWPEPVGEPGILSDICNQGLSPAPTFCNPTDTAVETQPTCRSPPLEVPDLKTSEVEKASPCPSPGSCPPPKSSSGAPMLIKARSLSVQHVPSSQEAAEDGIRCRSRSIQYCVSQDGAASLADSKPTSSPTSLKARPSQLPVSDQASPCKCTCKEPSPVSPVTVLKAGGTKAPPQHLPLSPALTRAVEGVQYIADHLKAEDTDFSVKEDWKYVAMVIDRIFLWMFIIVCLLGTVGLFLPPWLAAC

Row | Structure (SMILES) | Ki [1] | Ki [2] | Ki [3] | Ki [4] [nM]
1 | CO[C@H]1CC=C2CCN3CCC4=C(CC(=O)OC4)[C@]23C1 | 6200 nM and > 10000 nM | 3800 nM and > 10000 nM | – | –
2 | CC(=O)OCC[N+](C)(C)C [2-acetoxyethyl(trimethyl)ammonium;perchlorate] | 11 nM | – | – | –
3 | C[N+](C)(C)CCO [2-hydroxy-N,N,N-trimethylethanaminium] | > 10000 nM | > 10000 nM | > 10000 nM | –
4 | C[N+](C)(C)CCOC(N)=O [(2-Hydroxyethyl)trimethyl ammonium chloride carbamate] | 260 nM and 930 nM | 1100 nM and 4700 nM | 590 nM and 1100 nM | –
5 | c1cncc(OCC2CCN2)c1 (stereo unspecified) [A-85380] | 18 nM | – | – | –
6 | O=c1cccc2n1CC1CNCC2C1 (stereo unspecified) [CAS_485-35-8] | 1.1 nM and 5.4 nM | 37 nM and 220 nM | 1.5 nM and 2.1 nM | –
7 | CCN1CC2(COC(=O)c3ccccc3-n3c(O)cc(C)c3O)CCC(OC)C34C5CC6C(OC)CC(O)(C5C6OC)C(O)(C(OC)C23)C14 (stereo unspecified) [CAS_21019-30-7] | > 10000 nM | – | > 10000 nM and 6400 nM | –
8 | Ic1ccc(C2CC3CCC2N3)cn1 (stereo unspecified) [IPH] | 0.11 nM and 0.15 nM | 0.18 nM and 0.98 nM | 0.15 nM | 0.33
9 | CNC1(C)C2CCC(C2)C1(C)C (stereo unspecified) [Methyl-(2,3,3-trimethyl-bicyclo[2.2.1]hept-2-yl)-amine(Mecamylamine)] | > 10000 nM | – | > 10000 nM | –

Reference: BindingDB's records for doi:10.1124/jpet.104.066787 (Georgetown University, 2004)
